The text below walks through data of PMC12655172, “Borylated 5-Membered Ring Iminosugars: Synthesis and Biological Evaluation for Glycosidase Inhibition and Anticancer Properties for Application in Boron Neutron Capture Therapy (BNCT)—Part 2” (Pharmaceuticals, 2025).

Data set [1] can be described thus: Sample appearance on sample preparation in water. Format: physicochemical. The following applies: 1 mL of water was added to 1 mg solid.
For data set [2], the system named is T1, α-D-galactosidase (coffee beans).
T1 construct: purchased Sigma-Aldrich; host or cells: coffee beans
The experiment in a line: Glycosidase inhibition (Table 2 panel). In kind it is biochemical. In outline:
(§1)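 pNP-glycoside substrate […], optimum pH per enzyme, […]; quench Na2CO3 […]; A400 for liberated p-nitrophenol.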

Data set [3] deals with β-D-glucuronidase (bovine liver). The experiment in a line: Glycosidase inhibition (Table 2 panel). In kind it is biochemical. In short, it runs like this: as §1
Data set [4] deals with β-D-mannosidase (snail). The experiment in a line: Glycosidase inhibition (Table 2 panel). Format: biochemical. In outline:
as §1

The subject of data set [5] is MCF10A (non-tumour derived normal breast cell line). The experiment in a line: Cancer screening, MTT growth inhibition. Format: cell-based. The following applies: 72 h.
In data set [6] the test system is A431 (skin carcinoma). Kind of data set: Cancer screening, MTT growth inhibition. Format: cell-based. The following applies: 72 h. In outline:
(§2)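 Growth inhibition is reported as mean ± SEM from three replicates run on separate occasions and cell passages. Cells grew in DMEM with 10% foetal bovine serum at 37 °C under 5% CO2 and were treated 24 h after seeding at 2500–4000 cells/well.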

The test system of data set [7] is HT29 (colorectal carcinoma). The experiment in a line: Cancer screening, MTT growth inhibition. Format: cell-based. Particulars: 72 h. In short, it runs like this: as §2
Data set [8] relates to A2780 (ovarian carcinoma). The experiment in a line: Cancer screening, MTT growth inhibition. Format: cell-based. Particulars: 72 h. In short, it runs like this:
as §2

In data set [9] the test system is MIA-Pa-Ca2 (pancreatic carcinoma). The experiment in a line: Cancer screening, MTT growth inhibition. In kind it is cell-based. The following applies: 72 h. In short, it runs like this:
as §2

Data set [10] relates to H460 (lung carcinoma). Kind of data set: Cancer screening, MTT growth inhibition. Format: cell-based. The following applies: 72 h. In outline: as §2
Data set [11] concerns the target T2, α-D-glucosidase (yeast) (Saccharomyces cerevisiae, UniProt P53341).
T2 construct: purchased Sigma-Aldrich
The experiment in a line: Glycosidase inhibition (Table 3 panel). The following applies: 1 mg/mL aqueous solution; run in water. In kind it is biochemical. In short, it runs like this: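 Run at 27 °C in citric acid (0.1 M)/disodium hydrogen phosphate (0.2 M) buffer at the enzyme's optimum pH, with […] para-nitrophenyl substrate solution and extract at 1 mg/mL (solution concentration). Values are means of triplicate determinations.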

Data set [12] has as its system β-D-glucosidase (almond). The experiment in a line: Glycosidase inhibition (Table 3 panel). Format: biochemical. The following applies: 1 mg/mL aqueous solution; run in water. In short, it runs like this: (§3)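 Each glycosidase received […] para-nitrophenyl substrate in citrate/phosphate buffer at its optimum pH plus 1 mg/mL extract solution, at 27 °C. After stopping with glycine (pH 10.4) during the exponential phase, 405 nm absorbance was read; values are means of three replicates.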

For data set [13], the system named is β-D-glucuronidase (bovine liver). Kind of data set: Glycosidase inhibition (Table 3 panel). In kind it is biochemical. The following applies: 1 mg/mL aqueous solution; run in water. In outline:
as §3

T2 sequence (P53341 whole entry): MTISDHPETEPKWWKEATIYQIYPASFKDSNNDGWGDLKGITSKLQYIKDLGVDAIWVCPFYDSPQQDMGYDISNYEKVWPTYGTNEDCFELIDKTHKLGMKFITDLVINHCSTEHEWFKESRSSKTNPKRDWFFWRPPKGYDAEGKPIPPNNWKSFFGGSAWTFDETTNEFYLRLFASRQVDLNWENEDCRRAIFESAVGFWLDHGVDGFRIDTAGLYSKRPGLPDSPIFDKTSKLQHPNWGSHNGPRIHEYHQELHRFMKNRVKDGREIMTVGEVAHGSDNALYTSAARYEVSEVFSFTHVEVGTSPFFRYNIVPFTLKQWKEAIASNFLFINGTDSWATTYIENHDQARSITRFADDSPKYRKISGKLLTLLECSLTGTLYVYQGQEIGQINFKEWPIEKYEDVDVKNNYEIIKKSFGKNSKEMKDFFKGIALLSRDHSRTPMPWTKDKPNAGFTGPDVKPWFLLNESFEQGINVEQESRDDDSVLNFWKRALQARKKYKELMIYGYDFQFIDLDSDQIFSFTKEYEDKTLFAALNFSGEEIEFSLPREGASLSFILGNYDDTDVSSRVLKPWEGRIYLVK

As to “N-(3-Hydroxyphenyl)-1,4-dideoxy-1,4-imino-L-gulitol [meta 7]”, the “Sample Appearance” value in data set [1] is on record as “In solution”. In addition, the entries for the “inhibition % α-D-Galactosidase Coffee Beans” value in data set [2] (at 100 μM) and in [2] (at 1000 μM) were “^cNI ^d(1.8%)” and “^aNI ^b(1.7%)”, respectively. For the same substance, the “inhibition % β-D-Glucuronidase Bovine Liver” value in data set [3] (at 100 μM) is on record as “^cNI ^d(1.2%)”; in data set [3] (at 1000 μM) it was “^aNI ^b(0%)”. Moreover, the “inhibition % β-D-Mannosidase Snail” value in data set [4] (at 100 μM) is given as “^cNI ^d(0%)”; in data set [4] (at 1000 μM) it was “^aNI ^b(0%)”. In addition, the “DOSE SCREEN percentage (%) cell growth inhibition MCF10A Breast (normal)” value in [5] (25 µM of drug) is 31 ± 16%. For the same substance, the GI50 (usually the concentration giving 50% growth inhibition) worked out at 43 ± 17 µM in data set [5] (read-out: DOSE RESPONSE GI50 MCF10A Breast (normal)); 17 ± 8.5 µM in [6] (read-out: DOSE RESPONSE GI50 A431 Skin); 50 µM in data set [7] (read-out: DOSE RESPONSE GI50 HT29 Colon); 30 ± 20 µM in [8] (read-out: DOSE RESPONSE GI50 A2780 Ovarian); 51 ± 1.5 µM in data set [9] (read-out: DOSE RESPONSE GI50 MIA-Pa-Ca2 Pancreatic); 47 ± 7 µM in [10] (read-out: DOSE RESPONSE GI50 H460 Lung). The “DOSE SCREEN percentage (%) cell growth inhibition A431 Skin” value in data set [6] (25 µM of drug) is listed as 56 ± 6%. Besides, the “DOSE SCREEN percentage (%) cell growth inhibition HT29 Colon” value in data set [7] (25 µM of drug) was determined as 29 ± 1%. The “DOSE SCREEN percentage (%) cell growth inhibition A2780 Ovarian” value in data set [8] (25 µM of drug) stood at 48 ± 7%. Moreover, the “DOSE SCREEN percentage (%) cell growth inhibition MIA-Pa-Ca2 Pancreatic” value in [9] (25 µM of drug) was determined as 39 ± 2%. The “DOSE SCREEN percentage (%) cell growth inhibition H460 Lung” value in data set [10] (25 µM of drug) is 37 ± 3%. The “Percentage inhibition α-D-Glucosidase Yeast” value in [11] is reported as 19.5%. For the same substance, the “Percentage inhibition β-D-Glucosidase Almond” value in data set [12] is listed as 2.9%. The “Percentage inhibition β-D-Glucuronidase Bovine Liver” value in data set [13] was −3%.
